Measurements published in the supplement of paper PMC10307832.

Columns and labels:
Experiment in all cases: relative viability (nuclei count vs DMSO), 5 days (fraction); higher = more cells survive
[1] = compound: CN(C)CC1=CC(=CC=C1)N=C(C2=CC=CC=C2)C3=C(NC4=C3C=CC(=C4)C(=O)N(C)C)O + NC(=O)Nc1cc(-c2cccc(F)c2)sc1C(=O)N[C@H]1CCCNC1 [AZD7762] (partner 0.2 µM)
In short: (§1)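 For relative viability, nuclei counts in treated wells were divided by those in vehicle wells. Lung cancer cell lines had been pin-tool dosed in 1536-well plates the day after seeding and cultured for 5 days, then fixed and stained in one step (final 0.05% Triton X-100, 1% formaldehyde, 1 ug/ml Hoechst) and imaged at 4×. Doses were one drug alone or a fixed anchor-drug dose plus five library-drug doses (not always all listed) in √10 steps, and values are duplicate-plate medians.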

[2] = compound: CN(C)CC1=CC(=CC=C1)N=C(C2=CC=CC=C2)C3=C(NC4=C3C=CC(=C4)C(=O)N(C)C)O + Nc1ncn([C@H]2C[C@H](O)[C@@H](CO)O2)c(=O)n1 [Decitabine] (partner 2 µM)
In short: as §1

[3] = compound: CN(C)CC1=CC(=CC=C1)N=C(C2=CC=CC=C2)C3=C(NC4=C3C=CC(=C4)C(=O)N(C)C)O + CS(=O)(=O)CCNCc1ccc(-c2ccc3ncnc(Nc4ccc(OCc5cccc(F)c5)c(Cl)c4)c3c2)o1 [Lapatinib] (partner 2 µM)
In short: as §1

[4] = compound: CN(C)CC1=CC(=CC=C1)N=C(C2=CC=CC=C2)C3=C(NC4=C3C=CC(=C4)C(=O)N(C)C)O + O=C(c1cc(Cc2n[nH]c(=O)c3ccccc23)ccc1F)N1CCN(C(=O)C2CC2)CC1 [Olaparib] (partner 8 µM)
In short: as §1

| Cell Line | relative viability ([1]; first compound 0.08 µM) | relative viability ([1]; first compound 0.253 µM) | relative viability ([1]; first compound 0.8 µM) | relative viability ([1]; first compound 2.53 µM) | relative viability ([1]; first compound 8 µM) | relative viability ([2]; first compound 0.08 µM) | relative viability ([2]; first compound 0.253 µM) | relative viability ([2]; first compound 0.8 µM) | relative viability ([2]; first compound 2.53 µM) | relative viability ([2]; first compound 8 µM) | relative viability ([3]; first compound 0.08 µM) | relative viability ([3]; first compound 0.253 µM) | relative viability ([3]; first compound 0.8 µM) | relative viability ([3]; first compound 2.53 µM) | relative viability ([3]; first compound 8 µM) | relative viability ([4]; first compound 0.08 µM) | relative viability ([4]; first compound 0.253 µM) | relative viability ([4]; first compound 0.8 µM) | relative viability ([4]; first compound 2.53 µM) | relative viability ([4]; first compound 8 µM) |
| --- | --- | --- | --- | --- | --- | --- | --- | --- | --- | --- | --- | --- | --- | --- | --- | --- | --- | --- | --- | --- |
| HCC-366 | 0.303 | 0.252 | 0.248 | 0.157 | 0.315 | 0.385 | 0.36 | 0.34 | 0.333 | 0.341 | 0.949 | 0.939 | 1.07 | 1.01 | 1.08 | 0.339 | 0.371 | 0.437 | 0.347 | 0.304 |
| HCC-827 | 0.232 | 0.26 | 0.156 | 0.229 | 0.182 | 0.334 | 0.349 | 0.305 | 0.367 | 0.341 | 0.218 | 0.191 | 0.197 | 0.191 | 0.191 | 0.615 | 0.65 | 0.67 | 0.623 | 0.685 |
| IA-LM |  |  |  |  |  |  |  |  |  |  | 0.781 | 0.916 | 0.872 | 0.948 | 1.07 | 0.941 | 0.793 | 1.02 | 0.957 | 0.962 |
| LCLC-103H | 0.686 | 0.838 | 0.794 | 0.666 | 0.645 | 0.785 | 0.725 | 0.723 | 0.739 | 0.641 |  |  |  |  |  | 0.751 | 0.782 | 0.773 | 0.775 | 0.749 |
| NCI-H441 | 1.19 | 1.06 | 1 | 1.2 | 1.06 | 0.248 | 0.282 | 0.282 | 0.237 | 0.221 |  |  |  |  |  | 0.728 | 0.588 | 0.627 | 0.461 | 0.499 |
| NCI-H520 |  |  |  |  |  | 0.489 | 0.528 | 0.481 | 0.5 | 0.511 | 0.774 | 0.801 | 0.766 | 0.791 | 0.724 | 0.378 | 0.352 | 0.284 | 0.298 | 0.286 |
| NCI-H522 | 0.972 | 0.871 | 0.855 | 0.953 | 0.736 | 0.672 | 0.673 | 0.635 | 0.597 | 0.574 |  |  |  |  |  | 0.573 | 0.663 | 0.545 | 0.713 | 0.622 |
| NCI-H661 |  |  |  |  |  | 0.537 | 0.55 | 0.477 | 0.554 | 0.584 | 0.502 | 0.433 | 0.559 | 0.472 | 0.291 | 0.739 | 0.697 | 0.74 | 0.649 | 0.706 |
| NCI-H1299 |  |  |  |  |  |  |  |  |  |  | 0.957 | 0.914 | 0.977 | 0.875 | 0.915 | 0.982 | 0.999 | 0.962 | 0.909 | 0.901 |
| NCI-H1563 |  |  |  |  |  |  |  |  |  |  | 1.04 | 0.894 | 0.815 | 0.683 | 0.817 |  |  |  |  |  |
| NCI-H1648 | 0.638 | 0.706 |  | 0.718 | 0.606 | 0.418 | 0.568 |  | 0.538 | 0.544 |  |  |  |  |  | 0.867 | 0.72 |  | 0.709 | 1.28 |
| NCI-H1650 |  |  |  |  |  | 0.471 | 0.376 | 0.361 | 0.485 | 0.452 | 0.688 | 0.828 | 0.86 | 0.736 | 0.647 | 0.821 | 0.787 | 0.753 | 0.937 | 0.75 |
| NCI-H1703 | 0.128 | 0.126 | 0.119 | 0.133 | 0.0959 |  |  |  |  |  | 1.12 | 1.22 | 1.48 | 0.762 | 0.296 | 0.375 | 0.559 | 0.39 | 0.199 | 0.214 |
| NCI-H2009 |  |  |  |  |  | 0.364 | 0.427 | 0.432 | 0.343 | 0.379 | 1.07 | 0.98 | 1.03 | 0.813 | 0.886 | 0.726 | 0.722 | 0.732 | 0.649 | 0.669 |
| NCI-H2023 |  |  |  |  |  | 0.258 | 0.216 | 0.221 | 0.195 | 0.232 | 1.25 | 0.889 | 0.812 | 0.497 | 0.43 | 0.539 | 0.525 | 0.473 | 0.416 | 0.414 |
| NCI-H2228 |  |  |  |  |  |  |  |  |  |  | 1.06 | 1.13 | 1.19 | 0.704 | 0.846 | 0.781 | 0.542 | 0.623 | 0.689 | 0.557 |
| NCI-H2342 | 0.428 | 0.582 | 0.471 | 0.461 | 0.472 | 0.728 | 0.74 | 0.817 | 0.798 | 0.848 |  |  |  |  |  | 0.453 | 0.454 | 0.506 | 0.476 | 0.561 |
| SK-LU-1 |  |  |  |  |  | 0.624 | 0.653 | 0.646 | 0.578 | 0.677 | 0.814 | 0.878 | 0.831 | 0.747 | 0.836 | 0.483 | 0.47 | 0.516 | 0.431 | 0.385 |
| SK-MES-1 |  |  |  |  |  | 0.392 | 0.351 | 0.4 | 0.374 | 0.39 | 0.53 | 0.531 | 0.49 | 0.426 | 0.443 | 0.634 | 0.698 | 0.588 | 0.629 | 0.522 |
| SW 900 | 0.664 | 0.581 | 0.55 | 0.649 | 0.685 | 0.385 | 0.48 | 0.43 | 0.409 | 0.472 |  |  |  |  |  | 0.813 | 0.962 | 1.02 | 0.8 | 0.967 |
| SW 1573 |  |  |  |  |  | 0.496 | 0.46 | 0.659 | 0.562 | 0.573 | 1.1 | 1.24 | 1.13 | 1.08 | 0.955 | 0.362 | 0.416 | 0.419 | 0.523 | 0.377 |
| UMC-11 |  |  |  |  |  | 0.724 | 0.633 | 0.693 | 0.546 | 0.611 | 1.1 | 0.963 | 0.969 | 0.891 | 0.846 | 0.37 | 0.368 | 0.344 | 0.371 | 0.349 |
